Test results published in PubChem BioAssay AID1963861 (Molecular Pharmacology Branch, DTP, NCI, 2024).

System: 885724-159-R-J1-PDC KRAS PDC multicell spheroid viability
Test: Anticancer human tumor 885724-159-R-J1-PDC patient-derived pancreatic adenocarcinoma cell line growth inhibition [KRAS2]
Conditions: for IC50: curve of first compound; for viability, T/C: stronger effect = lower value
In short: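 KRAS-mutant tumor cells were grown as spheroids with HUVEC endothelial cells and human MSCs as stroma. Targeted agents were tested alone and with KRAS pathway inhibitors. Doses started at or near clinical Cmax, or 10 microM, descending half-log.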

[1] = second compound 0.1 µM, first compound 0.0316 µM
[2] = second compound 0.1 µM, first compound 0.1 µM
[3] = second compound 0.1 µM, first compound 0.316 µM
[4] = second compound 0.1 µM, first compound 1 µM
[5] = second compound 0.1 µM, first compound 3.16 µM
[6] = second compound 0.1 µM, first compound 10 µM
[7] = second compound 0.316 µM, first compound 0.0316 µM
[8] = second compound 0.316 µM, first compound 0.1 µM
[9] = second compound 0.316 µM, first compound 0.316 µM
[10] = second compound 0.316 µM, first compound 1 µM
[11] = second compound 0.316 µM, first compound 3.16 µM
[12] = second compound 0.316 µM, first compound 10 µM
[13] = second compound 1 µM, first compound 0.0316 µM
[14] = second compound 1 µM, first compound 0.1 µM
[15] = second compound 1 µM, first compound 0.316 µM
[16] = second compound 1 µM, first compound 1 µM
[17] = second compound 1 µM, first compound 3.16 µM
[18] = second compound 1 µM, first compound 10 µM
[19] = second compound 3.16 µM, first compound 0.0316 µM
[20] = second compound 3.16 µM, first compound 0.1 µM
[21] = second compound 3.16 µM, first compound 0.316 µM
[22] = second compound 3.16 µM, first compound 1 µM
[23] = second compound 3.16 µM, first compound 3.16 µM
[24] = second compound 3.16 µM, first compound 10 µM
[25] = second compound 0.1 µM, first compound 0.01 µM
[26] = second compound 0.316 µM, first compound 0.01 µM
[27] = second compound 1 µM, first compound 0.01 µM
[28] = second compound 3.16 µM, first compound 0.01 µM
[29] = second compound 10 µM, first compound 0.01 µM
[30] = second compound 10 µM, first compound 0.0316 µM
[31] = second compound 10 µM, first compound 0.1 µM
[32] = second compound 10 µM, first compound 0.316 µM
[33] = second compound 10 µM, first compound 1 µM
[34] = second compound 10 µM, first compound 3.16 µM
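Also: spheroids exposed to agents for 7 days before readout.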

SMILES: CC1OCC2(CCN(c3cnc(Sc4ccnc(N)c4Cl)c(N)n3)CC2)C1N (stereo not given) + C=CC(=O)N1CCN(c2nc(OCC3CCCN3C)nc3c2CCN(c2cccc4cccc(C)c24)C3)CC1CC#N
- IC50 (second compound 0.0316 µM): > 10 µM
- IC50 (second compound 0.1 µM): > 10 µM
- IC50 (second compound 0.316 µM): > 10 µM
- IC50 (second compound 1 µM): 9.45 µM
- IC50 (second compound 3.16 µM): < 0.0316 µM
- viability, T/C (second compound 0.0316 µM, first compound 0.0316 µM): 97%
- viability, T/C (second compound 0.0316 µM, first compound 0.1 µM): 85.7%
- viability, T/C (second compound 0.0316 µM, first compound 0.316 µM): 76.6%
- viability, T/C (second compound 0.0316 µM, first compound 1 µM): 68.4%
- viability, T/C (second compound 0.0316 µM, first compound 3.16 µM): 69.7%
- viability, T/C (second compound 0.0316 µM, first compound 10 µM): 56.6%
- viability, T/C [1]: 103%
- viability, T/C [2]: 89.8%
- viability, T/C [3]: 71.6%
- viability, T/C [4]: 69.6%
- viability, T/C [5]: 63.4%
- viability, T/C [6]: 61.6%
- viability, T/C [7]: 94%
- viability, T/C [8]: 84.7%
- viability, T/C [9]: 70.5%
- viability, T/C [10]: 67.9%
- viability, T/C [11]: 60.2%
- viability, T/C [12]: 57.3%
- viability, T/C [13]: 79.4%
- viability, T/C [14]: 73.4%
- viability, T/C [15]: 64%
- viability, T/C [16]: 56.2%
- viability, T/C [17]: 56.8%
- viability, T/C [18]: 48.6%
- viability, T/C [19]: 46%
- viability, T/C [20]: 40.2%
- viability, T/C [21]: 36.1%
- viability, T/C [22]: 33.6%
- viability, T/C [23]: 35.1%
- viability, T/C [24]: 27.1%

SMILES: CC(=O)OC12COC1CC(O)C1(C)C(=O)C(O)C3=C(C)C(OC(=O)C(O)C(NC(=O)OC(C)(C)C)c4ccccc4)CC(O)(C(OC(=O)c4ccccc4)C21)C3(C)C (stereo not given) + CC1OCC2(CCN(c3cnc(Sc4ccnc(N)c4Cl)c(N)n3)CC2)C1N
- IC50 (second compound 0.1 µM): > 3.16 µM
- IC50 (second compound 0.316 µM): > 3.16 µM
- IC50 (second compound 1 µM): > 3.16 µM
- IC50 (second compound 3.16 µM): > 3.16 µM
- IC50 (second compound 10 µM): > 3.16 µM
- viability, T/C [25]: 103%
- viability, T/C [1]: 110%
- viability, T/C [2]: 108%
- viability, T/C [3]: 117%
- viability, T/C [4]: 122%
- viability, T/C [5]: 121%
- viability, T/C [26]: 99.7%
- viability, T/C [7]: 100%
- viability, T/C [8]: 109%
- viability, T/C [9]: 114%
- viability, T/C [10]: 128%
- viability, T/C [11]: 116%
- viability, T/C [27]: 112%
- viability, T/C [13]: 120%
- viability, T/C [14]: 126%
- viability, T/C [15]: 122%
- viability, T/C [16]: 135%
- viability, T/C [17]: 138%
- viability, T/C [28]: 76.2%
- viability, T/C [19]: 86.7%
- viability, T/C [20]: 88.9%
- viability, T/C [21]: 93.6%
- viability, T/C [22]: 97.2%
- viability, T/C [23]: 97.8%
- viability, T/C [29]: 77.6%
- viability, T/C [30]: 84.5%
- viability, T/C [31]: 87.4%
- viability, T/C [32]: 95.5%
- viability, T/C [33]: 91.5%
- viability, T/C [34]: 103%

SMILES: CN(C)C/C=C/C(=O)Nc1cc2c(Nc3ccc(F)c(Cl)c3)ncnc2cc1O[C@H]1CCOC1 + CC1OCC2(CCN(c3cnc(Sc4ccnc(N)c4Cl)c(N)n3)CC2)C1N
- IC50 (second compound 0.1 µM): > 0.1 µM
- IC50 (second compound 0.316 µM): > 0.1 µM
- IC50 (second compound 1 µM): > 0.1 µM
- IC50 (second compound 3.16 µM): > 0.1 µM
- IC50 (second compound 10 µM): > 0.1 µM
- viability, T/C (second compound 0.1 µM, first compound 0.000316 µM): 112%
- viability, T/C (second compound 0.1 µM, first compound 0.001 µM): 105%
- viability, T/C (second compound 0.1 µM, first compound 0.00316 µM): 105%
- viability, T/C [25]: 89.4%
- viability, T/C [1]: 71.8%
- viability, T/C [2]: 68%
- viability, T/C (second compound 0.316 µM, first compound 0.000316 µM): 103%
- viability, T/C (second compound 0.316 µM, first compound 0.001 µM): 102%
- viability, T/C (second compound 0.316 µM, first compound 0.00316 µM): 90.7%
- viability, T/C [26]: 81.3%
- viability, T/C [7]: 78.6%
- viability, T/C [8]: 71.5%
- viability, T/C (second compound 1 µM, first compound 0.000316 µM): 150%
- viability, T/C (second compound 1 µM, first compound 0.001 µM): 144%
- viability, T/C (second compound 1 µM, first compound 0.00316 µM): 136%
- viability, T/C [27]: 121%
- viability, T/C [13]: 105%
- viability, T/C [14]: 89.2%
- viability, T/C (second compound 3.16 µM, first compound 0.000316 µM): 88.1%
- viability, T/C (second compound 3.16 µM, first compound 0.001 µM): 88%
- viability, T/C (second compound 3.16 µM, first compound 0.00316 µM): 77.8%
- viability, T/C [28]: 72.8%
- viability, T/C [19]: 67.1%
- viability, T/C [20]: 62.8%
- viability, T/C (second compound 10 µM, first compound 0.000316 µM): 147%
- viability, T/C (second compound 10 µM, first compound 0.001 µM): 149%
- viability, T/C (second compound 10 µM, first compound 0.00316 µM): 140%
- viability, T/C [29]: 116%
- viability, T/C [30]: 104%
- viability, T/C [31]: 92%

SMILES: O=C(c1cc(Cc2n[nH]c(=O)c3ccccc23)ccc1F)N1CCN(C(=O)C2CC2)CC1 + CC1OCC2(CCN(c3cnc(Sc4ccnc(N)c4Cl)c(N)n3)CC2)C1N
- IC50 (second compound 0.1 µM): > 10 µM
- IC50 (second compound 0.316 µM): > 10 µM
- IC50 (second compound 1 µM): > 10 µM
- IC50 (second compound 3.16 µM): > 10 µM
- IC50 (second compound 10 µM): > 10 µM
- viability, T/C [1]: 111%
- viability, T/C [2]: 113%
- viability, T/C [3]: 106%
- viability, T/C [4]: 104%
- viability, T/C [5]: 100%
- viability, T/C [6]: 95.8%
- viability, T/C [7]: 103%
- viability, T/C [8]: 109%
- viability, T/C [9]: 104%
- viability, T/C [10]: 103%
- viability, T/C [11]: 104%
- viability, T/C [12]: 89.6%
- viability, T/C [13]: 145%
- viability, T/C [14]: 149%
- viability, T/C [15]: 143%
- viability, T/C [16]: 137%
- viability, T/C [17]: 118%
- viability, T/C [18]: 104%
- viability, T/C [19]: 81%
- viability, T/C [20]: 90.4%
- viability, T/C [21]: 85.1%
- viability, T/C [22]: 86%
- viability, T/C [23]: 78.9%
- viability, T/C [24]: 77.6%
- viability, T/C [30]: 78.3%
- viability, T/C [31]: 87.4%
- viability, T/C [32]: 132%
- viability, T/C [33]: 81%
- viability, T/C [34]: 70.7%
- viability, T/C (second compound 10 µM, first compound 10 µM): 67.1%
